What is called IC50 is the concentration at which inhibition is half-maximal. By inhibition is commonly meant the percentage by which the read-out fell short of the control.

Data on 14 compounds can be found in patent US5030631A, “Tricylclic arylsulfonamides” (Schering Corporation, priority 1989, dated 1991).

Test [1] addresses T1, myosin light chain kinase (MLCK) (Gallus gallus, UniProt P11799).
T1 construct: Calmodulin-independent myosin light chain kinase(CIM) of greater than 95 percent homogeneity is prepared by trypsin digestion of calmodulin-dependent MLCK; from tissue; host or cells: chicken gizzard (purified from tissue, then digested with TPCK-treated trypsin)
The experiment in a line: Calcium-Calmodulin Independent Myosin Light Chain Kinase (MLCK) Assay. It counts as biochemical, chicken. The following applies: for IC50: calmodulin-independent MLCK (trypsin digested, chicken gizzard), peptide KKRPQRATSNVFS-NH2 50 μM, 100 uM ATP, pH 7.2; for inhibition at 100 µM: 100 μM compound, calmodulin-independent MLCK, printed in the IC50 (μM) column, read-out: percent inhibition at a dosage of 100 μM. The protocol:
A. Enzyme Preparation. Calmodulin-independent myosin light chain kinase(CIM) of greater than 95 percent homogeneity is prepared by trypsin digestion of calmodulin-dependent MLCK which is prepared from chicken gizzard by the method of Ngai, P. J., Carruthers, C. A. and Walsh, M. P. (1984), Biochem. J. 218, pages 863-870, through the step employing diethylaminoethyl(DEAE)-Sephacel®, trademark of Pharmacia Fine Chemicals, Inc., New Market, N.J. 08854. The kinase solution containing 8.5 mg protein is adjusted to 0.5 mg/ml in 20 mM Tris/HCl, pH 7.5, 2 mM EGTA. An aliquot of 1 mg/ml of N-tosyl-L-phenylalanine-chloromethyl ketone (TPCK) treated trypsin is added to a final trypsin:MLCK ratio of 1:7.5 (mg/mg protein). Typically, the reaction is incubated for 6 minutes at 25° C.
MLCK is assayed using the synthetic peptide substrate KKRPQRATSNVFS-NH2, a thirteen amino acid fragment with a sequence corresponding to residues 11-23 of gizzard light chain except for a carboxy-terminal serine-NH2 as described in Kemp, G. E., Pearson, R. B. and House, C. (1983) Proc. Nat. Acad. Sci. U.S.A. 80, pages 7471-7475. The standard assay is performed in a total volume of 100 microliters (μl) containing 20 mM Tris-HCl, pH 7.2, 10 mM MgCl2, 100 uM [γ-^32 P] ATP with a specific activity of 300-1000 counts per minute (cpm) per picomole (pmol), 50 μM KKRPQRATSNVFS-NH2, 0.02 μg enzyme. Calmodulin was added at the concentrations indicated in the text and tables, and assays contained 1 mM EGTA or 1 mM EGTA plus approximately 200 μM excess free calcium when calcium-dependent activity was measured. Calcium-independent activity is negligible in the calcium dependent gizzard enzyme. Assays are initiated by addition of adenosine triphosphate (ATP) and stopped by addition of 200 μM HCl. Phosphate incorporated into the basic substrate is measured by spotting an aliquot on phosphocellulose filter paper, washing and counting the papers. The results are given in IC50 values. An IC50 indicates the dosage of compound in micromoles (μM) which inhibits MLCK by 50 percent. […] Results given in percentages (%) indicates the percent inhibition at a dosage of 100 μM.

Test [2] concerns conscious spontaneously hypertensive rats (SHR). The experiment in a line: Antihypertensive Activity in Rats (conscious spontaneously hypertensive rats, SHR). It counts as in vivo, rat. The following applies: for Change in blood pressure (mean change in mean blood pressure): male SHR, placebo -5. The text has this: The ability of the compounds of the present invention to lower blood pressure can be assessed in conscious spontaneously hypertensive rats (SHR). SHR (males) are purchased from Taconic Farms, Germantown, N.Y. and are approximately 16-17 weeks old when used to test the pharmacological effects. Rats, under ether anesthesia, receive a polyethylene tubing (PE50 fused to PE10) inserted via the caudal artery into the abdominal aorta to just below the renal arteries. This catheter is connected to a Spectromed pressure transducer and the direct arterial blood pressure is continuously recorded on an oscillographic recorder. Heart rate is determined via manual count of the pressure waves at a fast paper trace. […] If drugs are administered orally, compounds are suspended in 0.4% aqueous methylcellulose and delivered via oral gavage with an oral feeding needle. Rats are fasted overnight prior to intravenous or oral tests. All incisions are closed and the rats are placed into plexiglass restrainers where they quickly regain consciousness. At least 90 minutes are allowed for the rats to fully regain consciousness and achieve stable blood pressures and heart rates.
Intravenously administered drugs are usually given as a rapid bolus. […] In some cases drugs are given by constant intravenous infusion. The 0.4% aqueous methylcellulose is used as a placebo treatment for compounds given orally. Values are presented as the mean changes in mean blood pressure (MBP) in millimeters of mercury (mm Hg). Drug induced changes are compared with the changes in an appropriate placebo group. The compound is administered intravenously at a dosage of 1.0 to 5.0 milligrams per kilogram (mpk) body weight. The following results are representative for 1-((7-bromo-9H-fluoren-2-yl)sulfonyl)hexahydro-1H-1,4-diazepine from examples 4 and 27 (Compound A): […]

T1 sequence (P11799 1217-1713 limits assumed): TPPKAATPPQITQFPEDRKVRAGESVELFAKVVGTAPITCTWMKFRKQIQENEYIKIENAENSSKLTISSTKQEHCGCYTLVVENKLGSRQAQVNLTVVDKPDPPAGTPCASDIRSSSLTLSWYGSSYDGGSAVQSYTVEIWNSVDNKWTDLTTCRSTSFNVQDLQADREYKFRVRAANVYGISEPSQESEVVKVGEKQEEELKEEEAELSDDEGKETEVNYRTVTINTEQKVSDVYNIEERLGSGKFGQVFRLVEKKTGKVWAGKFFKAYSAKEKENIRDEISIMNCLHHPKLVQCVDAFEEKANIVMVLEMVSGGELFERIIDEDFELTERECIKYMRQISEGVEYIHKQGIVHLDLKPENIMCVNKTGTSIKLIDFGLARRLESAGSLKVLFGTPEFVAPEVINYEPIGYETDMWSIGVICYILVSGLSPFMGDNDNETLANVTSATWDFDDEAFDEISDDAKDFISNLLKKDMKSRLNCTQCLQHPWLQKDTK

Turning to `O=S(=O)(c1cccc2cc3ccccc3cc12)N1CCCNCC1` [Example 16], the IC50 in test [1] came out at 17 µM.
Turning to `CC1(C)c2cc(Br)ccc2-c2ccc(S(=O)(=O)N3CCCNCC3)cc21` [Example 29], the inhibition at 100 µM in test [1] came to 40%.
With `O=S(=O)(c1cccc2nc3ccccc3cc12)N1CCCNCC1` [Example 21], the IC50 in test [1] turned out to be 100 µM.
`N=C(N)N1CCCN(S(=O)(=O)c2ccc3c(c2)Cc2cc(Br)ccc2-3)CC1` [Example 28]: the inhibition at 100 µM in test [1] is 55%.
Consider `O=S(=O)(c1ccc2c(ccc3ccccc32)c1)N1CCCNCC1` [Example 19], for which the IC50 in test [1] turned out to be 11 µM.
Same read-out and setting: to `O=S(=O)(c1c2ccccc2cc2ccccc12)N1CCCNCC1` [Example 25] belongs 5 µM; to `O=S(=O)(c1cc2ccccc2c2ccccc12)N1CCCNCC1` [Example 18], 4.8 µM; to `O=S(=O)(c1cc2ccccc2c2ccccc12)N1CCCNCC1` [Example 26], 3.5 µM.
On the same count and under the same terms, to `O=S(=O)(c1ccc2ncc3ccccc3c2c1)N1CCCNCC1` [Example 22] belongs 32 µM.
In the case of `O=S(=O)(c1ccc2c(cnc3ccccc32)c1)N1CCCNCC1` [Example 23], the IC50 in test [1] turned out to be 65 µM.
With `O=S(=O)(c1ccc2cc3ccccc3cc2c1)N1CCCNCC1` [Example 17], the concentration for half-maximal inhibition (IC50) in test [1] is 50 µM.
With `O=S(=O)(c1cccc2c1cnc1ccccc12)N1CCCNCC1` [Example 24], the IC50 in test [1] is 35 µM.
On to `O=S(=O)(c1ccc2c(Br)cc3ccccc3c2c1)N1CCCNCC1` [Example 20], for which the IC50 in test [1] turned out to be 10 µM.
In the case of `O=S(=O)(c1ccc2c(c1)Cc1cc(Br)ccc1-2)N1CCCNCC1` [Compound A, 1-((7-bromo-9H-fluoren-2-yl)sulfonyl)hexahydro-1H-1,4-diazepine], the “Change in blood pressure (mean change in mean blood pressure)” value in test [2] (intravenous, 1.0 mpk) was -13 mm Hg; in test [2] (intravenous, 2.5 mpk), -25 mm Hg; in test [2] (intravenous, 5.0 mpk), -30 mm Hg. Further, in test [2] (intravenous, 1.0 to 5.0 mpk, SHR), the “reduction in blood pressure upon intravenous administration” value was “dose-dependent reduction in blood pressure”. Further, the “magnitude of the effect at the highest dose compared with the placebo” value in test [2] (intravenous, 5.0 mpk, SHR, compared with placebo) is recorded as “marked reduction”. In test [2] (oral, 50 mpk, SHR), the “activity upon oral administration” value is given as “does not show activity”. Besides, in test [1], the IC50 stood at 76 µM.
